Reference: PubChem BioAssay AID248 (DTP/NCI, 2004)
Where “and” joins values, the source holds several entries; their conditions need not be identical. Equal values may be shown once. Inconclusive results and toxic doses are left out. No stated cut-off is given here; in the data, active means T/C of 150% or more; inactive means T/C below 125%.

Test system: L1210 leukemia ip in BDF1 mice, survival T/C
Test: NCI In Vivo Anticancer Drug Screen. Data for tumor model L1210 Leukemia (intraperitoneal) in B6D2F1 (BDF1) mice
Settings: endpoint: mean survival time, higher = longer survival
How it was run: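 Survival endpoint. Drug-treated group vs vehicle group, expressed as T divided by C. Tumor passaged by transplantation.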

[1] = dose: 100.0 mg/kg/injection, schedule: Q01DX009 (ip), vehicle: Klucel (hydroxypropylcellulose) (HPC)
[2] = dose: 200.0 mg/kg/injection, schedule: Q01DX009 (ip), vehicle: Klucel (hydroxypropylcellulose) (HPC)
[3] = dose: 100.0 mg/kg/injection, schedule: Q04DX003 (ip), vehicle: saline with Tween-80
[4] = dose: 200.0 mg/kg/injection, schedule: Q04DX003 (ip), vehicle: saline with Tween-80
[5] = dose: 400.0 mg/kg/injection, schedule: Q04DX003 (ip), vehicle: saline with Tween-80
[6] = dose: 100.0 mg/kg/injection, schedule: Q04DX003 (ip), vehicle: saline
[7] = dose: 25.0 mg/kg/injection, schedule: Q04DX002 (ip), vehicle: Klucel (hydroxypropylcellulose) (HPC)
[8] = dose: 50.0 mg/kg/injection, schedule: Q04DX002 (ip), vehicle: Klucel (hydroxypropylcellulose) (HPC)
[9] = dose: 100.0 mg/kg/injection, schedule: Q04DX002 (ip), vehicle: Klucel (hydroxypropylcellulose) (HPC)
[10] = dose: 100.0 mg/kg/injection, schedule: Q04DX002 (ip), vehicle: saline
[11] = dose: 200.0 mg/kg/injection, schedule: Q04DX002 (ip), vehicle: saline
[12] = dose: 400.0 mg/kg/injection, schedule: Q04DX002 (ip), vehicle: saline

Measured: T/C

O=[N+]([O-])c1ccc(Oc2c(Cl)cc(Cl)cc2Cl)c([N+](=O)[O-])c1
inactive: dose: 222.0 mg/kg/injection, schedule: Q01DX Z (ip), vehicle: methylcellulose (MC) 103 % of control | dose: 333.0 mg/kg/injection, schedule: Q01DX Z (ip), vehicle: methylcellulose (MC) 105 % of control | dose: 500.0 mg/kg/injection, schedule: Q01DX Z (ip), vehicle: methylcellulose (MC) 101 % of control

CN(C)C=C(S(C)(=O)=O)S(C)(=O)=O
inactive: dose: 75.0 mg/kg/injection, schedule: Q04DX003 (ip), vehicle: saline 97 % of control | dose: 100.0 mg/kg/injection, schedule: Q01DX009 (ip), vehicle: saline 101 % of control | dose: 150.0 mg/kg/injection, schedule: Q04DX003 (ip), vehicle: saline 97 % of control | dose: 200.0 mg/kg/injection, schedule: Q01DX009 (ip), vehicle: saline 109 % of control | dose: 300.0 mg/kg/injection, schedule: Q04DX003 (ip), vehicle: saline 101 % of control | dose: 400.0 mg/kg/injection, schedule: Q01DX009 (ip), vehicle: saline 98 % of control

O=C(C[P+](c1ccccc1)(c1ccccc1)c1ccccc1)c1ccc([N+](=O)[O-])cc1
inactive: dose: 100.0 mg/kg/injection, schedule: Q01DX001 (ip), vehicle: saline 105 % of control | dose: 200.0 mg/kg/injection, schedule: Q01DX001 (ip), vehicle: saline 105 % of control | dose: 400.0 mg/kg/injection, schedule: Q01DX001 (ip), vehicle: saline 100 % of control

Nc1ncnc2nc[nH]c12.[Cl][Pt][Cl]
inactive: dose: 100.0 mg/kg/injection, schedule: Q01DX009 (ip), vehicle: water 101 % of control | dose: 100.0 mg/kg/injection, schedule: Q04DX003 (ip), vehicle: water 94 % of control | dose: 200.0 mg/kg/injection, schedule: Q01DX009 (ip), vehicle: water 96 % of control | dose: 200.0 mg/kg/injection, schedule: Q04DX003 (ip), vehicle: water 87 % of control | dose: 400.0 mg/kg/injection, schedule: Q01DX009 (ip), vehicle: water 90 % of control | dose: 400.0 mg/kg/injection, schedule: Q04DX003 (ip), vehicle: water 94 % of control

CSc1ccc(/C=N/NC(N)=S)cc1
inactive: [1] 103 % of control | dose: 100.0 mg/kg/injection, schedule: Q04DX003 (ip), vehicle: Klucel (hydroxypropylcellulose) (HPC) 106 % of control | [2] 92 % of control | dose: 200.0 mg/kg/injection, schedule: Q04DX003 (ip), vehicle: Klucel (hydroxypropylcellulose) (HPC) 106 % of control | dose: 400.0 mg/kg/injection, schedule: Q04DX003 (ip), vehicle: Klucel (hydroxypropylcellulose) (HPC) 108 % of control

CC1CCC2CON(C(C)(C)C)C2C1 (configuration not stated)
inactive: dose: 50.0 mg/kg/injection, schedule: Q01DX009 (ip), vehicle: saline with Tween-80 106 % of control | dose: 100.0 mg/kg/injection, schedule: Q01DX009 (ip), vehicle: saline with Tween-80 107 % of control | [3] 103 % of control | [4] 97 % of control and 101 % of control | [5] 94 % of control

OCCN1CCN(CCCN2c3ccccc3C=Cc3ccccc32)CC1
inactive: dose: 6.25 mg/kg/injection, schedule: Q01DX009 (ip), vehicle: saline 93 % of control | dose: 12.5 mg/kg/injection, schedule: Q01DX009 (ip), vehicle: saline 93 % of control | dose: 25.0 mg/kg/injection, schedule: Q01DX009 (ip), vehicle: saline 95 % of control | dose: 25.0 mg/kg/injection, schedule: Q04DX003 (ip), vehicle: saline 93 % of control | dose: 50.0 mg/kg/injection, schedule: Q01DX009 (ip), vehicle: saline 102 % of control | dose: 50.0 mg/kg/injection, schedule: Q04DX003 (ip), vehicle: saline 98 % of control | [6] 102 % of control

Oc1cc(Br)c(O)c(Br)c1
inactive: [7] 109 % of control | [8] 102 % of control | [9] 97 % of control | dose: 400.0 mg/kg/injection, schedule: Q04DX002 (ip), vehicle: Klucel (hydroxypropylcellulose) (HPC) 90 % of control

CCOC(=O)c1ccc(OC(=O)Nc2ccc(OC)cc2OC)cc1
inactive: [1] 101 % of control

CCCCC(=O)N(CCC)CCC
inactive: [10] 96 % of control | [11] 104 % of control | [12] 104 % of control

CC1=NNC(=O)C1Br (configuration not stated)
inactive: dose: 100.0 mg/kg/injection, schedule: Q01DX001 (ip), vehicle: carboxymethylcellulose (CMC) 105 % of control | dose: 200.0 mg/kg/injection, schedule: Q01DX001 (ip), vehicle: carboxymethylcellulose (CMC) 102 % of control | dose: 400.0 mg/kg/injection, schedule: Q01DX001 (ip), vehicle: carboxymethylcellulose (CMC) 100 % of control

CCOC(=O)Nc1ccc([N+](=O)[O-])cc1[N+](=O)[O-]
inactive: dose: 100.0 mg/kg/injection, schedule: Q01DX001 (ip), vehicle: saline with Tween-80 101 % of control | [3] 100 % of control | dose: 200.0 mg/kg/injection, schedule: Q01DX001 (ip), vehicle: saline with Tween-80 98 % of control | [4] 93 % of control | dose: 400.0 mg/kg/injection, schedule: Q01DX001 (ip), vehicle: saline with Tween-80 95 % of control | [5] 98 % of control

O=NN1C(=O)N(CCCl)C(=O)C1(c1ccccc1)c1ccccc1
inactive: [6] 96 % of control | dose: 200.0 mg/kg/injection, schedule: Q04DX003 (ip), vehicle: saline 97 % of control | dose: 400.0 mg/kg/injection, schedule: Q04DX003 (ip), vehicle: saline 102 % of control

[O-][n+]1ccnc(C(Cl)(Cl)Cl)c1Cl
inactive: dose: 0.78 mg/kg/injection, schedule: Q01DX009 (ip), vehicle: other 90 % of control | dose: 1.56 mg/kg/injection, schedule: Q01DX009 (ip), vehicle: other 107 % of control | dose: 3.12 mg/kg/injection, schedule: Q01DX009 (ip), vehicle: other 86 % of control

O=C(Nc1ccc(S(=O)(=O)F)cc1[N+](=O)[O-])c1ccc2ccccc2c1O
inactive: [1] 104 % of control | [2] 96 % of control | dose: 400.0 mg/kg/injection, schedule: Q01DX009 (ip), vehicle: Klucel (hydroxypropylcellulose) (HPC) 93 % of control

O=C(/C=C/c1ccncc1)Nc1ccccc1
inactive: [7] 117 % of control | [8] 98 % of control | [9] 98 % of control

O=C1C2C3CCC(O3)C2C(=O)N1CCO (configuration not stated)
inactive: [10] 109 % of control | [11] 106 % of control | [12] 98 % of control
